The values that follow are results of earlier work, collected in patent US8895039B2, “Cosmetic preparations containing hydrocarbons” (Cognis IP Management GmbH, priority 2007, dated 2014).

For this series the following is noted: at 20° C.

SMILES strings stand for the structures.

For `CCCCCCCCC` [Nonane], the Viscosity was 0.711 cP.
